Tested on: PC-3 cells
Test: Tumor cell growth inhibition, sulforhodamine B (SRB) staining
Assay type: cell-based
Settings: PC-3 human prostatic carcinoma cells, 48 hrs, absorbance 540 nm, adriamycin as positive control
Procedure: PC-3 cells (ATCC, US), human prostatic carcinoma cell line, were cultured in RMPI 1640 supplemented with 10% fetal bovine serum.
Appropriate concentrations of cells (5×10^4 cells/ml) cultured in RMPI 1640 supplemented with 5% fetal bovine serum were poured into 96-well plate and incubated at 37° C. in 5% CO2 condition. The day after the incubation, PC-3 cells were fixed on Time zero (T0) plate by adding 50 μl/well of 50% trichloroacetic acid and the cell concentration was set to zero point by fixing the cells. In the cells treated with test samples, 50% TCA was added to each wells in 50 ul/well after 48 hrs to fix the cells. The final concentration of adding test compounds were 0.01, 0.03, 0.1, 0.3, 1 μg/ml respectively. Then, each fixed plate was washed, dried and 100 μl/well of 0.4% reaction solution containing sulforhodamine B (SRB) reagent dissolved in 0.1% acetic acid was added thereto to stain the cells. 30 minutes later, the cell was washed with 0.1% acetic acid, dried at room temperature, and 10 mM of TRIS base (pH 10.5) was added thereto to dissolve the staining agent. Finally, the absorbance detected at 540 nm was measured and the value was conversed into percentage comparing with that of control group. IC50 (μg/ml), the concentration of the group required to inhibit the cancer cell growth by 50%, was calculated from the data (AA: IC50's<1, A: IC50's<5, B: IC50's<10 and C: IC50's>10). Also, the inhibiting activity of cell growth was expressed as various symbols in accordance with the potency of examples e.g., AA: closely equivalent (1˜2 times), A: slightly weaker (3˜5 times), B: weaker (5˜10 times), C: very weaker (more than 10 times) than that of adriamycin used as a positive control group.

Compound | IC50 [µg/mL]
COc1ccc(CN2CC=C(CCC(=O)NO)C2=O)c(OC)c1 [Example 1, 3-[1-(2,4-Dimethoxybenzyl)-2-oxo-2,5-dihydro-1H-pyrrol-3-yl]-N-hydroxypropionamide] | < 5
O=C(CCC1=CCN(CCc2ccccc2)C1=O)NO [Example 3, N-hydroxy-3-(2-oxo-1-phenethyl-2,5-dihydro-1H-pyrrol-3-yl)-propionamide] | < 1
Cc1ccccc1CN1CC=C(CCC(=O)NO)C1=O [Example 6, N-hydroxy-3-[1-(2-methyl-benzyl)-2-oxo-2,5-dihydro-1H-pyrrol-3-yl]-propionamide] | < 10
Cc1cccc(CN2CC=C(CCC(=O)NO)C2=O)c1 [Example 7, N-hydroxy-3-[1-(3-methyl-benzyl)-2-oxo-2,5-dihydro-1H-pyrrol-3-yl]-propionamide] | < 5
Cc1ccc(CN2CC=C(CCC(=O)NO)C2=O)cc1 [Example 8, N-hydroxy-3-[1-(4-methyl-benzyl)-2-oxo-2,5-dihydro-1H-pyrrol-3-yl]-propionamide] | < 5
COc1ccccc1CN1CC=C(CCC(=O)NO)C1=O [Example 9, N-hydroxy-3-[1-(2-methoxy-benzyl)-2-oxo-2,5-dihydro-1H-pyrrol-3-yl]-propionamide] | < 5
COc1cccc(CN2CC=C(CCC(=O)NO)C2=O)c1 [Example 10, N-hydroxy-3-[1-(3-methoxy-benzyl)-2-oxo-2,5-dihydro-1H-pyrrol-3-yl]-propionamide] | < 1
COc1ccc(CN2CC=C(CCC(=O)NO)C2=O)cc1 [Example 11, N-hydroxy-3-[1-(4-methoxy-benzyl)-2-oxo-2,5-dihydro-1H-pyrrol-3-yl]-propionamide] | < 1
O=C(CCC1=CCN(Cc2ccc(Br)cc2)C1=O)NO [Example 12, 3-[1-(4-bromo-benzyl)-2-oxo-2,5-dihydro-1H-pyrrol-3-yl]-N-hydroxy-propionamide] | < 1
O=C(CCC1=CCN(Cc2ccc(Cl)cc2)C1=O)NO [Example 13, 3-[1-(4-chloro-benzyl)-2-oxo-2,5-dihydro-1H-pyrrol-3-yl]-N-hydroxy-propionamide] | < 5
O=C(CCC1=CCN(Cc2ccc(OCc3ccccc3)cc2)C1=O)NO [Example 14, 3-[1-(4-benzyloxy-benzyl)-2-oxo-2,5-dihydro-1H-pyrrol-3-yl]-N-hydroxy-propionamide] | < 10
COc1ccc(CN2CC=C(CCC(=O)O)C2=O)c(OC)c1 [Example 16, 3-[1-(2,4-dimethoxy-benzyl)-2-oxo-2,5-dihydro-1H-pyrrol-3-yl]-propionic acid] | > 10
O=C(O)CCC1=CCN(Cc2ccccc2)C1=O [Example 17, 3-(1-benzyl-2-oxo-2,5-dihydro-1H-pyrrol-3-yl)-propionic acid] | > 10
O=C(CCC1=CCN(Cc2ccc(NC(=O)c3ccccc3)cc2)C1=O)NO [Example 18, N-{4-[3-(2-hydroxycarbamoyl-ethyl)-2-oxo-2,5-dihydro-pyrrole-1-yl-methyl]-phenyl}-benzamide] | < 10
Cc1ccc(S(=O)(=O)Nc2ccc(CN3CC=C(CCC(=O)NO)C3=O)cc2)cc1 [Example 19, N-hydroxy-3-{2-oxo-1-[4-(toluene-4-sulfonylamino)-benzyl]-2,5-dihydro-1H-pyrrol-3-yl}-propionamide] | < 10
O=C(CC1=CCN(Cc2ccccc2)C1=O)NO [Example 20, 2-(1-benzyl-2-oxo-2,5-dihydro-1H-pyrrol-3-yl)-N-hydroxy-acetamide] | > 10
COc1ccc(CN2CC=C(CC(=O)NO)C2=O)c(OC)c1 [Example 21, 2-[1-(2,4-dimethoxy-benzyl)-2-oxo-2,5-dihydro-1H-pyrrol-3-yl]-N-hydroxy-acetamide] | > 10
O=C(CC1=CCN(CCc2ccccc2)C1=O)NO [Example 22, N-hydroxy-2-(2-oxo-1-phenethyl-2,5-dihydro-1H-pyrrol-3-yl)-acetamide] | > 10
O=C(CC1=CCN(CCCCc2ccccc2)C1=O)NO [Example 23, N-hydroxy-2-[2-oxo-1-(4-phenyl-butyl)-2,5-dihydro-1H-pyrrol-3-yl]-acetamide] | > 10
O=C(CC1=CCN(Cc2ccc(OCc3ccccc3)cc2)C1=O)NO [Example 24, 2-[1-(4-benzyloxy-benzyl)-2-oxo-2,5-dihydro-1H-pyrrol-3-yl]-N-hydroxy-acetamide] | > 10
O=C(CC1CCN(Cc2ccccc2)C1=O)NO (centres unmarked) [Example 25, 2-(1-benzyl-2-oxo-pyrrolidin-3-yl)-N-hydroxy-acetamide] | > 10
COc1ccc(CN2CCC(CC(=O)NO)C2=O)c(OC)c1 (centres unmarked) [Example 26, 2-[1-(2,4-dimethoxy-benzyl)-2-oxo-pyrrolidin-3-yl]-N-hydroxy-acetamide] | > 10
O=C(CC1CCN(CCc2ccccc2)C1=O)NO (centres unmarked) [Example 27, N-hydroxy-2-(2-oxo-1-phenethyl-pyrrolidin-3-yl)-acetamide] | > 10

Other lines, results leading:

IC50 [µg/mL] | Compound
< 5 | O=C(CCC1=CCN(CCc2ccccc2F)C1=O)NO [Example 28, 3-{1-[2-(2-fluoro-phenyl)-ethyl]-2-oxo-2,5-dihydro-1H-pyrrol-3-yl}-N-hydroxy-propionamide]
< 5 | O=C(CCC1=CCN(CCc2cccc(F)c2)C1=O)NO [Example 29, 3-{1-[2-(3-fluoro-phenyl)-ethyl]-2-oxo-2,5-dihydro-1H-pyrrol-3-yl}-N-hydroxy-propionamide]
< 5 | O=C(CCC1=CCN(CCc2ccc(F)cc2)C1=O)NO [Example 30, 3-{1-[2-(4-fluoro-phenyl)-ethyl]-2-oxo-2,5-dihydro-1H-pyrrol-3-yl}-N-hydroxy-propionamide]
< 5 | O=C(CCC1=CCN(CCc2ccccc2[N+](=O)[O-])C1=O)NO [Example 31, N-hydroxy-3-{1-[2-(2-nitro-phenyl)-ethyl]-2-oxo-2,5-dihydro-1H-pyrrol-3-yl}-propionamide]
< 5 | O=C(CCC1=CCN(CCc2cccc([N+](=O)[O-])c2)C1=O)NO [Example 32, N-hydroxy-3-{1-[2-(3-nitro-phenyl)-ethyl]-2-oxo-2,5-dihydro-1H-pyrrol-3-yl}-propionamide]
< 5 | O=C(CCC1=CCN(CCc2ccc([N+](=O)[O-])cc2)C1=O)NO [Example 33, N-hydroxy-3-{1-[2-(4-nitro-phenyl)-ethyl]-2-oxo-2,5-dihydro-1H-pyrrol-3-yl}-propionamide]
< 5 | O=C(CCC1=CCN(CCc2ccccc2Br)C1=O)NO [Example 34, 3-{1-[2-(2-bromo-phenyl)-ethyl]-2-oxo-2,5-dihydro-1H-pyrrol-3-yl}-N-hydroxy-propionamide]
< 5 | O=C(CCC1=CCN(CCc2ccc(Br)cc2)C1=O)NO [Example 35, 3-{1-[2-(4-bromo-phenyl)-ethyl]-2-oxo-2,5-dihydro-1H-pyrrol-3-yl}-N-hydroxy-propionamide]
< 5 | COc1ccccc1CCN1CC=C(CCC(=O)NO)C1=O [Example 36, N-hydroxy-3-{1-[2-(2-methoxy-phenyl)-ethyl]-2-oxo-2,5-dihydro-1H-pyrrol-3-yl}-propionamide]
< 5 | COc1cccc(CCN2CC=C(CCC(=O)NO)C2=O)c1 [Example 37, N-hydroxy-3-{1-[2-(3-methoxy-phenyl)-ethyl]-2-oxo-2,5-dihydro-1H-pyrrol-3-yl}-propionamide]
< 5 | COc1ccc(CCN2CC=C(CCC(=O)NO)C2=O)cc1 [Example 38, N-hydroxy-3-{1-[2-(4-methoxy-phenyl)-ethyl]-2-oxo-2,5-dihydro-1H-pyrrol-3-yl}-propionamide]
< 5 | Cc1ccc(CCN2CC=C(CCC(=O)NO)C2=O)cc1 [Example 39, N-hydroxy-3-[2-oxo-1-(2-p-tolyl-ethyl)-2,5-dihydro-1H-pyrrol-3-yl]-propionamide]
< 5 | Cc1ccc(CCCN2CC=C(CCC(=O)NO)C2=O)cc1 [Example 40, N-hydroxy-3-[2-oxo-1-(3-p-tolyl-propyl)-2,5-dihydro-1H-pyrrol-3-yl]-propionamide]
< 10 | Cc1ccccc1CCCN1CC=C(CCC(=O)NO)C1=O [Example 41, N-hydroxy-3-[2-oxo-1-(3-o-tolyl-propyl)-2,5-dihydro-1H-pyrrol-3-yl]-propionamide]
< 1 | Cc1cccc(CCCN2CC=C(CCC(=O)NO)C2=O)c1 [Example 42, N-hydroxy-3-[2-oxo-1-(3-m-tolyl-propyl)-2,5-dihydro-1H-pyrrol-3-yl]-propionamide]
< 5 | CC(C)c1ccc(CCCN2CC=C(CCC(=O)NO)C2=O)cc1 [Example 43, N-hydroxy-3-{1-[3-(4-isopropyl-phenyl)-propyl]-2-oxo-2,5-dihydro-1H-pyrrol-3-yl]-propionamide]
< 10 | O=C(CCC1=CCN(CCCc2ccc(Br)cc2)C1=O)NO [Example 44, 3-{1-[3-(4-bromo-phenyl)-propyl]-2-oxo-2,5-dihydro-1H-pyrrol-3-yl]-N-hydroxy-propionamide]
< 10 | O=C(CCC1=CCN(CCCc2ccc(Cl)cc2)C1=O)NO [Example 45, 3-{1-[3-(4-chloro-phenyl)-propyl]-2-oxo-2,5-dihydro-1H-pyrrol-3-yl]-N-hydroxy-propionamide]

Reference: patent US7723376B2, “2-oxo-heterocyclic compounds and pharmaceutical compositions” (Korea Research Institute of Bioscience and Biotechnology, priority 2003, dated 2010)
